Columns and labels:
MAPK phosphorylation = test: MAPK cell-based phosphorylation assay (ELISA or Western), PANC-1; details: Homo sapiens
Experimental: Cell lines: Tumor-derived pancreatic cancer cell line PANC-1 was purchased from ATCC and were and grown in DMEM-High Glucose supplemented with penicillin (100 U/mL), streptomycin (100 μg/mL), and 10% heat-inactivated FBS at 37° C. in a humidified incubator with 5% CO2.
Method: Cells were plated at 7500 cells/well density in a 96-well plate, allowed 3 hours to adhere to the plate, then starved in DMEM plus 0.5% FBS overnight. The small molecules to be tested were added to the cells in the final concentration of 10 μM in the presence of 0.3% DMSO for 6 hours incubation at 37° C. For IC50 value determination, serial dilutions of compounds were added to cells under the same conditions. Next, cells were stimulated with 1.5 ng/mL EGF for 15 minutes followed by cell fixation with 4% formaldehyde in PBS at room temperature for 20 minutes. Cell-direct ELISA determined phosphorylation level of MAPK.
Cell-direct ELISA: For each well, cells were permeabilized with 0.1% PBS-Triton X-100, quenched with 0.06% H2O2 in 0.1% PBS-Triton X-100, and probed with anti-phospho-MAPK antibodies (R&D Systems) followed by HRP-conjugated secondary antibody (Jackson Immunoresearch, West Grove, PA). Next, a 50 μM solution of the fluorescent substrate AmpliFlu Red (Sigma) was added and incubated at RT for 20 minutes. At the end of the incubation time, phosphorylation level of MAPK was determined by measuring fluorescence at 595 nm using SpectraMax M3 plate reader (Molecular Devices).
Cell lines: Human NSCLC cells NCI-H1975 and NCI-H1299, and tumor-derived pancreatic cancer cell lines Panc-1, MIA-PaCa-2, and BxPC3, were all purchased from American Type Culture Collection and grown in complete RPMI medium (BxPC3, NCI-H1975 and NCI-H1299) or DMEM-High Glucose (Panc1 and MIA-PaCa-2), supplemented with penicillin (100 U/mL), streptomycin (100 μg/mL), and 10% heat-inactivated FBS at 37° C. in a humidified incubator with 5% CO2.
(§1) Method: Cells were plated at 350000 cells/well density in a 12-well plate, allowed 3 hours to adhere to the plate, then starved in the appropriate medium in the presence of 0.5% FBS overnight. The small molecules to be tested were added to the cells in the final concentration of 10 μM in the presence of 0.3% DMSO for 6 hours incubation at 37° C. For IC50 value determination, serial dilutions of compounds were added to cells under the same conditions. Next, cells were stimulated with 1.5 ng/ml EGF for 15 minutes then cells were lysed with lysis buffer containing 1% Triton X-100, EDTA, and Halt™ Protease & Phosphatase Inhibitor Cocktail (Thermo Scientific). Protein concentration was assessed by BCA protein assay (Thermo Scientific). Phosphorylation level of MAPK was determined by western blot.
(§2) Western blot protocol: Equal amounts of protein (15-50 μg) were separated by SDS-PAGE and transferred to nitrocellulose membranes (Invitrogen by Thermo Fisher Scientific). The membrane was stained with Ponceau S Stain (Boston BioProducts) to verify uniform protein loading. Membranes were blocked with 10% milk and phosphorylation levels of MAPK were assessed by incubating overnight at 4° C. with anti-phospho-p44/42 (Thr202/Tyr204) antibody (Cell Signaling) followed by HRP-conjugated secondary antibody (Jackson Immunoresearch, West Grove, PA). Bands were incubated in Amersham ECL Prime Western Blotting Detection Reagent (GE Healthcare) and visualized using the ChemiDoc MP imaging system (Bio-Rad).

AKT phosphorylation = test: Western AKT cell-based phosphorylation assay, PANC-1; details: Homo sapiens
Experimental: Human tumor-derived pancreatic cancer cell line Panc-1 was purchased from American Type Culture Collection and grown in complete DMEM-High Glucose supplemented with penicillin (100 U/mL), streptomycin (100 μg/mL), and 10% heat-inactivated FBS at 37° C. in a humidified incubator with 5% CO2.
as §1, with “C.” for “C. For IC50 value determination, serial dilutions of compounds were added to cells under the same conditions.”, “Akt” for “MAPK”
as §2, with “Akt” for “MAPK”, “anti-phospho-Akt (Ser473)” for “anti-phospho-p44/42 (Thr202/Tyr204)”

[1] = 6 hours, EGF stimulation, PANC-1

Row | SMILES | inhibition at 10 µM (MAPK phosphorylation; PANC-1 (Table 4C)) [%] | inhibition at 10 µM (AKT phosphorylation; PANC-1 (Table 4C)) [%] | inhibition at 10 µM (MAPK phosphorylation; [1]) [%] | inhibition at 10 µM (AKT phosphorylation; [1]) [%] | IC50 (MAPK phosphorylation; PANC-1) [µM]
1 | COc1cccc(-c2sc3nc(C4=NC(C)=NC4C)nc(N[C@@H]4CC[C@H](OC)C4)c3c2C)c1F (stereo partly drawn) | 76 to 100 | 0 |  |  | 
2 | CO[C@H]1CC[C@@H](Nc2nc(-c3nccn3C)nc3sc(-c4cccc5[nH]ncc45)c(C)c23)C1 | 76 to 100 | 0 |  |  | 
3 | Cn1ccc(-c2sc3nc(-c4nccn4C)nc(N[C@@H]4CC[C@H](O)C4)c3c2-c2ccccc2)n1 (racemic) [drawing 509] | 26 to 50 | 0 |  |  | 
4 | COc1cccc(-c2csc3c(O)nc(-c4nccn4C)nc23)c1Cl [drawing 386] |  |  | 26 to 50 | 0 | 
5 | Cn1ccnc1-c1nc(O)c2scc(-c3ccccn3)c2n1 [drawing 387] |  |  | 0 | 0 | 
6 | Oc1nc(-c2ncc3n2CCCC3)nc2c(-c3ccccn3)csc12 [drawing 388] |  |  | 0 | 0 | 
7 | Oc1nc(-c2cn3ccccc3n2)nc2c(-c3ccccn3)csc12 [drawing 389] |  |  | 26 to 50 | 0 | 
8 | COCCn1ccnc1-c1nc(O)c2scc(-c3ccccn3)c2n1 [drawing 390] |  |  | 51 to 75 | 0 | 
9 | Cc1cc(Cn2ccnc2-c2nc(O)c3scc(-c4ccccn4)c3n2)on1 [drawing 391] |  |  | 0 | 0 | 
10 | Oc1nc(-c2nccn2Cc2ccccn2)nc2c(-c3ccccn3)csc12 [drawing 392] |  |  | 51 to 75 | 0 | 
11 | COc1cccc(Cn2ccnc2-c2nc(O)c3scc(-c4ccccn4)c3n2)c1 [drawing 393] |  |  | 51 to 75 | 0 | 
12 | Cc1cnc(-c2nc(O)c3scc(-c4ccccn4)c3n2)n1C [drawing 394] |  |  | 0 | 0 | 
13 | Cc1cn(C)c(-c2nc(O)c3scc(-c4ccccn4)c3n2)n1 [drawing 395] |  |  | 0 | 0 | 
14 | Oc1nc(-c2ncc3ccccn23)nc2c(-c3ccccn3)csc12 [drawing 396] |  |  | 0 | 0 | 
15 | Oc1nc(-c2cn3cccnc3n2)nc2c(-c3ccccn3)csc12 [drawing 397] |  |  | 0 | 0 | 
16 | Oc1nc(-c2cn(-c3ccccc3)cn2)nc2c(-c3ccccn3)csc12 [drawing 398] |  |  | 0 | 0 | 
17 | COc1ccc(Cn2cnc(-c3nc(O)c4scc(-c5ccccn5)c4n3)c2)cc1 [drawing 399] |  |  | 51 to 75 | 0 | 
18 | COCCCNc1nc(-c2nccn2C)nc2sc(-c3ccn(C)n3)c(-c3ccccc3)c12 [drawing 400] |  |  | 26 to 50 | 0 | 
19 | COCCCN(C)c1nc(-c2nccn2C)nc2sc(-c3ccn(C)n3)c(-c3ccccc3)c12 [drawing 401] |  |  | 51 to 75 | 0 | 
20 | COCC(C)Nc1nc(-c2nccn2C)nc2sc(-c3ccn(C)n3)c(-c3ccccc3)c12 (stereo not drawn) [drawing 402] |  |  | 51 to 75 | 0 | 

Row | SMILES | inhibition at 10 µM (MAPK phosphorylation; PANC-1 (Table 4C)) [%] | inhibition at 10 µM (AKT phosphorylation; PANC-1 (Table 4C)) [%] | inhibition at 10 µM (MAPK phosphorylation; [1]) [%] | inhibition at 10 µM (AKT phosphorylation; [1]) [%] | IC50 (MAPK phosphorylation; PANC-1) [µM]
21 | COC1CCN(c2nc(-c3nccn3C)nc3sc(-c4ccn(C)n4)c(-c4ccccc4)c23)C1 (stereo not drawn) [drawing 403] |  |  | 1 to 25 | 0 | 
22 | Cn1ccc(-c2sc3nc(-c4nccn4C)nc(NC4CCOCC4)c3c2-c2ccccc2)n1 [drawing 404] |  |  | 1 to 25 | 1 to 25 | 
23 | Cn1ccc(-c2sc3nc(-c4nccn4C)nc(NCC4CCOC4)c3c2-c2ccccc2)n1 (stereo not drawn) [drawing 405] |  |  | 1 to 25 | 0 | 
24 | Cn1ccc(-c2sc3nc(-c4nccn4C)nc(N4CCC5(CCOC5)C4)c3c2-c2ccccc2)n1 (stereo not drawn) [drawing 409] |  |  | 0 | 0 | 
25 | COC1CCN(c2nc(-c3nccn3C)nc3sc(-c4ccn(C)n4)c(-c4ccccc4)c23)CC1 [drawing 410] |  |  | 76 to 100 | 0 | 
26 | COCCCNc1nc(-c2nccn2C)nc2sc(-c3ccn(C)n3)c(-c3ccc(OC)cc3)c12 [drawing 411] |  |  | 0 | 0 | 
27 | COCC(C)Nc1nc(-c2nccn2C)nc2sc(-c3ccn(C)n3)c(-c3ccc(OC)cc3)c12 (stereo not drawn) [drawing 412] |  |  | 1 to 25 | 0 | 
28 | COc1ccc(-c2c(-c3ccn(C)n3)sc3nc(-c4nccn4C)nc(N4CCC(OC)C4)c23)cc1 (stereo not drawn) [drawing 413] |  |  | 1 to 25 | 0 | 
29 | COC1CCN(c2nc(-c3nccn3C)nc3sc(-c4ccccc4Cl)c(-c4cscn4)c23)C1 (stereo not drawn) [drawing 415] |  |  | 0 | 0 | 
30 | COc1cccc(-c2sc3nc(-c4nccn4C)nc(N4CCC(OC)C4)c3c2-c2cscn2)c1 (stereo not drawn) [drawing 417] |  |  | 0 | 0 | 
31 | COCCNc1nc(-c2cn(C)cn2)nc2sc(-c3cccc(OC)c3Cl)c(-c3ccc(OC)cc3)c12 [drawing 423] |  |  | 76 to 100 | 0 | 
32 | COCCNc1nc(-c2cn(C)cn2)nc2sc(-c3cc(OC)ccc3Cl)c(-c3ccc(OC)cc3)c12 [drawing 424] |  |  | 76 to 100 | 76 to 100 | 
33 | COc1cc(-c2sc3nc(-c4nccn4C)nc(N4CCC(OC)C4)c3c2-c2ccccc2)ccn1 (stereo not drawn) [drawing 427] |  |  | 51 to 75 | 0 | 
34 | COC1CCN(c2nc(-c3nccn3C)nc3sc(-c4ccnn4C)c(-c4ccccc4)c23)C1 (stereo not drawn) [drawing 428] |  |  | 0 | 0 | 
35 | COC1CCN(c2nc(-c3nccn3C)nc3sc(-c4cccnc4)c(-c4ccccc4)c23)C1 (stereo not drawn) [drawing 429] |  |  | 51 to 75 | 0 | 
36 | COc1ccc(-c2sc3nc(-c4nccn4C)nc(N4CCC(OC)C4)c3c2-c2ccccc2)cn1 (stereo not drawn) [drawing 430] |  |  | 1 to 25 | 0 | 
37 | COc1ncccc1-c1sc2nc(-c3nccn3C)nc(N3CCC(OC)C3)c2c1-c1ccccc1 (stereo not drawn) [drawing 431] |  |  | 76 to 100 | 0 | 
38 | COC1CCN(c2nc(-c3nccn3C)nc3sc(-c4cnc(C5CC5)o4)c(-c4ccccc4)c23)C1 (stereo not drawn) [drawing 432] |  |  | 51 to 75 | 0 | 
39 | COc1cccc(-c2sc3nc(-c4nccn4C)nc(N4CCC(OC)C4)c3c2-c2ccccc2)c1F (stereo not drawn) [drawing 473] |  |  |  |  | > 1
40 | CO[C@H]1CC[C@@H](Nc2nc(-c3nccn3C)nc3sc(-c4ccn(C(C)C)n4)c(-c4ccccc4)c23)C1 [drawing 475] |  |  |  |  | > 1
